# Laboratory results taken from PubChem BioAssay AID652 (University of Pittsburgh Molecular Library Screening Center, 2007).
# pIC50: −log10 of the molar value. Active and inactive are the calls of the source. The rule behind the calls is not given here.
# Biological target: Gag-Pol polyprotein (Human immunodeficiency virus type 1 group M subtype B (isolate HXB2)) (UniProt P04585)
# Assay: HIV-1 RT RNase H inhibitor potency, dose response, biochemical, probe assessment (AID 652)
# Conditions: HIV-1 RT RNase H enzymatic assay
Compound,pIC50,IC50
CSc1ccc(C2C(C#N)=C(N)Oc3c2ccc(=O)c2c(C)oc(C)c32)cc1 (stereo not drawn),5.24,
C/C=C/CSc1nc2c(c(=O)[nH]c(=O)n2C)n1Cc1ccc(C)cc1,4.95,
CN1CCN(C2=C(Cl)C(=O)N(c3ccc(Cl)c(Cl)c3)C2=O)CC1,4.57,
COc1ccc(-n2nc3cc(C)c(NC(=O)CC(C)C)cc3n2)cc1,5.09,
COc1ccc(C2C(C#N)=C(N)N3C(=C2C#N)Sc2ccccc23)cc1 (stereo not drawn),5.48,
O=C(CSc1nc2c([nH]c3ccccc32)c(=O)n1-c1cccc(Cl)c1)N1CCOCC1,4.63,
O=C(COc1ccc(Cl)cc1)Nc1nnc(-c2ccc3c(c2)CCCC3)o1,5.35,
S=C(c1ccc(-c2ccccc2Cl)o1)N1CCOCC1,6.03,
C1=C(c2ccc(-c3ccccc3)cc2)Nc2ncnn2C1c1ccco1 (stereo not drawn),4.84,
Fc1ccccc1CSc1nc2ncccc2[nH]1,5.01,
CCN(CC)C1=CC(=O)OC12CCCCC2,4.37,
COCCn1c(SCCN2CCOCC2)nc2c1c(=O)[nH]c(=O)n2C,,> 50 µM (inactive)
N#Cc1c(-c2cccnc2)c2c([nH]c1=S)CCCC2,4.99,
O=S(=O)(/N=S1/CC=CCN1S(=O)(=O)c1ccccc1)c1ccccc1 (stereo not drawn),5.36,
CCOc1cccc(C=Nc2cc(C)cc(C)c2O)c1O,,> 50 µM (inactive)

# Same assay, conditions: HIV-1 RT RNase H enzymatic assay, inhibition, at 50 µM, stronger effect = higher value
row,Compound,inhibition [%]
1,CC(C)Sc1nc2sc3c(c2c2nnc(SCC(=O)NCc4ccco4)n12)CCCC3,85.1
2,N#Cc1nc(-c2ccc(OCc3ccc(Cl)cc3)cc2)oc1NCc1cccnc1,99.4
3,CSc1ccc(C2C(C#N)=C(N)Oc3c2ccc(=O)c2c(C)oc(C)c32)cc1 (stereo not drawn),77.4
4,O=c1c2ccccc2[se]n1-c1ccccc1,85.5
5,COc1cccc(-c2nnc(NC(=O)c3ccc(S(=O)(=O)N(CC(C)C)CC(C)C)cc3)o2)c1,84.4
6,Cc1ccc(-n2c(N)c(C(=O)N3CCN(C)CC3)sc2=S)cc1,53.5
7,c1ccc2c(c1)OCC(c1nnc3sc(-c4ccc5c(c4)OCO5)nn13)O2 (stereo not drawn),97.2
8,Cc1cccc(Nc2n[nH]c(=S)s2)c1C,96.9
9,COc1ccc(OC)c(S(=O)(=O)Nc2ccc(O)c(Sc3ncn[nH]3)c2)c1,89.7
10,O=C(COc1ccc(Br)cc1)Nc1ccc(-c2nnc(-c3ccco3)o2)cc1,95.1
11,Clc1ccccc1-c1nn2c(-c3ccncc3)nnc2s1,79.3
12,O=C(NC1CCS(=O)(=O)C1)c1c(NC(=O)C2COc3ccccc3O2)sc2c1CCCC2 (stereo not drawn),88.4
13,Nc1c(C(=O)N2CCCCC2)sc(=S)n1-c1ccccc1,83.2
14,CC(C)c1nnc(NC(=O)c2c(O)c3cccc4c3n(c2=O)CCC4)s1,64.9
15,Cc1cc(NC(=O)CSc2nc3cc4c(cc3c(=O)n2CCc2ccccc2)OCO4)no1,76.9
16,O=C(CSc1nc2ccccc2c2nc3ccccc3n12)NCc1ccco1,67.7
17,O=C(Nc1ccc(N2CCOCC2)cc1)c1ccc2nc(-c3ccco3)c(-c3ccco3)nc2c1,93.4
18,COc1ccc(OC)c(/C=N/c2oc(-c3ccco3)c(-c3ccco3)c2C#N)c1,89.5
19,O=C(CSc1nnnn1-c1ccccc1)Nc1nsc(-c2ccc(Cl)cc2)n1,48.8
20,CCOC(=O)c1c(C)[nH]c(C(=O)CSc2nc3ccccc3o2)c1C,93.7
21,Cc1cccc(-c2nsc(SCC(=O)Nc3nccs3)n2)c1,97.3
22,C=CCSc1nc2c(c(=O)[nH]c(=O)n2C)n1C(C)C,60.6
23,CCn1cc(C(=O)NCc2ccco2)c(=O)c2cc(S(=O)(=O)N3CCc4ccccc4C3)ccc21,76.8
24,Cc1cc(C(=O)CSc2nnc(-c3ccc(OC(F)F)cc3)o2)c(C)n1Cc1cccs1,74.6
25,N#Cc1c(NC(=O)CN2CCN(S(=O)(=O)c3ccc4c(c3)OCCO4)CC2)sc2c1CCC2,81.9
26,O=C1CC(c2ccccc2)Cc2nc(N3CCc4ccccc43)ncc21 (stereo not drawn),94.6

row,Compound,inhibition [%]
1,CC1=C(SCCC#N)S/C(=C2\SC(C)=C(SCCC#N)S2)S1,97.5
2,C/C=C/CSc1nc2c(c(=O)[nH]c(=O)n2C)n1Cc1ccc(C)cc1,101
3,CN1CCN(C2=C(Cl)C(=O)N(c3ccc(Cl)c(Cl)c3)C2=O)CC1,61.9
4,CCC(C)c1ccc2oc(-c3ccc(NC(=O)c4ncn[nH]4)cc3)nc2c1 (stereo not drawn),94.2
5,C=CCn1c(SCC(=O)c2ccc(O)c(O)c2)nnc1-c1ccccc1OC,97.5
6,COc1ccc(C2C(C(C)=O)=C(C)N=c3s/c(=C/c4ccc5c(c4)OCO5)c(=O)n32)cc1 (stereo not drawn),82.2
7,COc1ccccc1N=c1oc2c(OC)cccc2cc1C(=O)NCc1ccco1,94.1
8,COc1cc(-c2nnc3sc(Cc4ccc(Cl)cc4)nn23)cc(OC)c1OC,96.4
9,C=CCSc1nc2c(c(=O)[nH]c(=O)n2C)n1CC,72.8
10,COC(=O)N(c1ccc(OC)cc1)P1(=S)OCCC(C)O1 (stereo not drawn),87.5
11,CCOc1ccccc1N1CSC2=C(C#N)C(c3c(OC)ccc4ccccc34)CC(=O)N2C1 (stereo not drawn),92
12,CCC1CCCCN1S(=O)(=O)c1ccc(S(=O)(=O)N2CCN(S(=O)(=O)CC)CC2)cc1 (stereo not drawn),93
13,COc1ccc(-n2nc3cc(C)c(NC(=O)CC(C)C)cc3n2)cc1,93.4
14,COc1cc(-c2nnc3sc(-c4cccnc4)nn23)cc(OC)c1OC,72.2
15,N#Cc1c(SCC(=O)Nc2nccs2)nc2c(c1-c1ccco1)CCCC2,88.9
16,COC(=O)c1ccc2c(c1)N(Cc1nc(-c3ccc(Cl)cc3)oc1C)C(=O)C1CCCN21 (stereo not drawn),78.9
17,O=C(Nc1nc(-c2ccncc2)cs1)c1ccco1,87.1
18,CCOC(=O)c1sc(NC(=O)CSc2n[nH]c(-c3ccccc3)n2)c(C#N)c1C,101
19,CC1CC(C)(C)NC(=S)S1 (stereo not drawn),66
20,COc1ccc(N2CCN(Cc3cc(=O)oc4cc5c(cc34)CCCC5)CC2)cc1,88.8
21,Cc1ccc(-n2c(N)c(C(N)=O)sc2=S)cc1,83.3
22,COc1ccc(N2CSC3=C(C#N)C(c4cc(OC)c(OC)cc4OC)CC(=O)N3C2)c(OC)c1 (stereo not drawn),76.1
23,COc1ccccc1N1CSC2=C(C#N)C(c3ccc(SC)cc3)CC(=O)N2C1 (stereo not drawn),97.1
24,COc1ccc2ccccc2c1C1CC(=O)N2CN(C3CCCCC3)CSC2=C1C#N (stereo not drawn),92.3
25,CCCc1nc2ccccc2c(=O)n1/N=C/c1ccc(O)c(O)c1,97.3
26,C=CCc1c(C)[nH]c(=S)c(C#N)c1C,67.2

row,Compound,inhibition [%]
1,Cc1sc2nc(SCC(=O)NCc3ccco3)n(CCc3ccccc3)c(=O)c2c1C,82.4
2,Cc1ccc(/C=C/C2=Cc3c(sc(NC(=O)CSc4n[nH]c(N)n4)c3C#N)C(C)(C)C2)o1,91.1
3,Cc1sc(-n2c(C)cc(/C=N/n3cnnc3)c2C)c(C#N)c1C,89.5
4,CC(C)C1N=C2c3ccccc3N=C(SCC(=O)c3ccc(O)c(O)c3)N2C1=O (stereo not drawn),99.8
5,O=c1c2ccccc2sn1-c1cc(S(=O)(=O)N2CCOCC2)ccc1N1CCOCC1,84.4
6,COc1ccc(C2C(C#N)=C(N)N3C(=C2C#N)Sc2ccccc23)cc1 (stereo not drawn),92
7,CCCCC[C@H](O)/C=C/[C@H]1C=CC(=O)[C@@H]1C/C=C\CCCC(=O)O,101
8,Cc1cccc(N2CSC3=C(C#N)C(c4ccc(C)o4)CC(=O)N3C2)c1 (stereo not drawn),100
9,Cc1cc(C)c2oc(-c3ccc(Cl)c(NC(=O)c4ccc(C#N)cc4F)c3)nc2c1,91
10,COc1ccccc1CNC(=O)c1cc2c(=O)n(C)c3ccccc3c2n1C,86
11,Cc1ccc2c(c1C)NC(C(=O)O)C1CC=CC21 (stereo not drawn),96.5
12,Cc1sc(NC(=O)c2oc3ccccc3c2C)c(C#N)c1C,90.3
13,c1ccc2c(c1)nnn2Cc1nnc2sc(-c3ccncc3)nn12,90.6
14,Cc1cc(-c2nn3c(-c4ccccc4)nnc3s2)c2ccccc2n1,94.7
15,Cc1ccc(-c2cc(C(F)F)n3ncc(C(=O)NCc4ccco4)c3n2)cc1,93
16,COc1ccc(Cn2nnnc2C(c2cccnc2)N2CCN(c3ccc(O)cc3)CC2)cc1 (stereo not drawn),43
17,O=C(c1ccccc1F)N1CCN(S(=O)(=O)c2ccc(S(=O)(=O)N3CCCCC3)cc2)CC1,95.5
18,O=c1c(O)c(-c2ccc(O)cc2O)oc2cc(O)cc(O)c12,92.8
19,CCOC(=O)c1c(N)sc2c1CCC1C(=O)N(C3CCCCC3)C(=O)C21 (stereo not drawn),96.1
20,CCc1ccc(NC(=O)CSc2nc3cc(C(=O)OC)ccc3c(=O)n2Cc2ccco2)cc1,94.7
21,CC1CCc2c(sc(NC(=O)c3ccc(Cn4cc(Br)cn4)o3)c2C(N)=O)C1 (stereo not drawn),76.3
22,Cc1ccc(-n2nc(C)c3c2NC(=O)CSC3c2ccc3c(c2)OCO3)cc1 (stereo not drawn),89.4
23,c1ccc2c(c1)ncn2Cc1nnc2sc(-c3ccc4c(c3)OCO4)nn12,93
24,O=C(Cn1c(=O)oc2cc(S(=O)(=O)N3CCCC3)ccc21)NC1CCCc2ccccc21 (stereo not drawn),58.8
25,c1ccc(Cc2nnc3sc(-c4ccncc4)nn23)cc1,80.4
26,Cc1nc(-c2cccc(S(=O)(=O)N3CCOCC3)c2)cs1,96.4

row,Compound,inhibition [%]
1,O=C(CCCn1c(SCC(=O)c2ccc(O)c(O)c2)nc2ccccc2c1=O)NCC1CCCO1 (stereo not drawn),99.4
2,O=c1/c(=C\c2cccn2-c2ccccc2)sc2nc3ccccc3n12,92
3,COc1cc(C(=O)Nc2oc(-c3ccccc3)c(-c3ccccc3)c2C#N)cc(OC)c1OC,94
4,COc1ccccc1-c1nnc2n1N=C(c1ccc(O)c(O)c1)CS2,97
5,CC(C)c1nc2sc3c(SCC(=O)NCc4ccco4)ncnc3c2c2c1CCC2,94.1
6,Cc1cc(C)c2c(=O)n(CC(=O)N3CCC(N4CCCCC4)CC3)sc2n1,60.1
7,O=C(CSc1nc2c([nH]c3ccccc32)c(=O)n1-c1cccc(Cl)c1)N1CCOCC1,82.5
8,COc1ccc(-c2nsc(SCC(=O)Nc3cc(C)on3)n2)cc1,96.6
9,CCCCCC#CCC#CCC#CCC#CCCCC(=O)O,98
10,O=C(COc1ccc(Cl)cc1)Nc1nnc(-c2ccc3c(c2)CCCC3)o1,83.7
11,S=C(c1ccc(-c2ccccc2Cl)o1)N1CCOCC1,92.6
12,C1=C(c2ccc(-c3ccccc3)cc2)Nc2ncnn2C1c1ccco1 (stereo not drawn),48.6
13,CCOC(=O)CSc1nc2cc(C(=O)NCc3ccco3)ccc2c(=O)n1-c1ccc(F)cc1,91.8
14,c1ccc2[nH]c(SN3CCOCC3)nc2c1,74.2
15,C=CCOc1ccc(CC2C(=O)N(C)C(=O)N(C)C2=O)cc1,101
16,Fc1ccccc1CSc1nc2ncccc2[nH]1,57.7
17,N#Cc1c(NC(=O)c2ccc(Cn3cc(Br)cn3)o2)sc2c1CCCCCC2,98
18,O=C(CSc1ncn[nH]1)c1ccccc1,84.1
19,CCN(CC)C1=CC(=O)OC12CCCCC2,65.8
20,COCCn1c(SCCN2CCOCC2)nc2c1c(=O)[nH]c(=O)n2C,40
21,N#Cc1c(-c2cccnc2)c2c([nH]c1=S)CCCC2,77.9
22,O=S(=O)(/N=S1/CC=CCN1S(=O)(=O)c1ccccc1)c1ccccc1 (stereo not drawn),69
23,CCOC(=O)C1CCCN(C(=O)Cn2sc3nc(C)cc(C)c3c2=O)C1 (stereo not drawn),69.6
24,CCOc1cccc(C=Nc2cc(C)cc(C)c2O)c1O,20.5
25,CCOC(=O)c1c(NC(=O)c2cc(C3CC3)on2)sc2c1CCCC2,97.1
